Results as given in patent US20240034737A1, “Heterocyclic Derivatives as P2X7 Receptor Antagonists” (BREYE THERAPEUTICS APS, priority 2020, published 2024).

Legend:
P2X7 receptor = P2X7 receptor (Homo sapiens (Human), UniProt Q99572); experiment: Human P2X7 channel calcium-influx assay (Fluo-8 NW, FLIPR TETRA, Bz-ATP stimulation); format: cell-based; details: HEK-293 cells stably transfected with P2X7 receptor, Low Divalent Cation Assay Buffer, read-out: hP2X7 IC50
Experimental: (§1) Extracellular binding of Bz-ATP to P2X7 receptor opens the channel and allows Ca^2+ influx into the cells. This Ca^2+ entry was measured in HEK-293 cells stably transfected with P2X7 receptor using Screen Quest™ Fluo-8 No Wash Calcium Assay Kit (AAt Bioquest®, cat. 36316). Once inside the cell, the lipophilic blocking groups of Fluo-8 are cleaved by non-specific cell esterases, resulting in a negatively-charged fluorescent dye that stays inside cells. Its fluorescence increases upon binding to calcium. When HEK-293/P2X7 cells are stimulated with Bz-ATP, Ca^2+ enters the cells and the fluorescence of Fluo-8 NW increases.
(§2) HEK-293 cells stably transfected with P2X7 receptor were seeded overnight in growth medium at 10,000 to 20,000 cells/well in 384-well plate. 24 hours later, the medium was removed, and the cells were pre-loaded at RT for 1 hour with 20 μL/w of Fluo-8 NW. Then 10 μL/w of test compounds and reference antagonist A438079 at 3X-concentration were injected with the […] and the kinetic response over a period of five minutes was monitored.

mP2X7 = mP2X7 (Mus musculus (Mouse), UniProt Q9Z1M0); experiment: mP2X7 channel calcium-influx assay (Fluo-8 NW, FLIPR TETRA, Bz-ATP stimulation); format: cell-based
Experimental: as §1, §2

P2X7 receptor, sequence (Q99572 whole entry): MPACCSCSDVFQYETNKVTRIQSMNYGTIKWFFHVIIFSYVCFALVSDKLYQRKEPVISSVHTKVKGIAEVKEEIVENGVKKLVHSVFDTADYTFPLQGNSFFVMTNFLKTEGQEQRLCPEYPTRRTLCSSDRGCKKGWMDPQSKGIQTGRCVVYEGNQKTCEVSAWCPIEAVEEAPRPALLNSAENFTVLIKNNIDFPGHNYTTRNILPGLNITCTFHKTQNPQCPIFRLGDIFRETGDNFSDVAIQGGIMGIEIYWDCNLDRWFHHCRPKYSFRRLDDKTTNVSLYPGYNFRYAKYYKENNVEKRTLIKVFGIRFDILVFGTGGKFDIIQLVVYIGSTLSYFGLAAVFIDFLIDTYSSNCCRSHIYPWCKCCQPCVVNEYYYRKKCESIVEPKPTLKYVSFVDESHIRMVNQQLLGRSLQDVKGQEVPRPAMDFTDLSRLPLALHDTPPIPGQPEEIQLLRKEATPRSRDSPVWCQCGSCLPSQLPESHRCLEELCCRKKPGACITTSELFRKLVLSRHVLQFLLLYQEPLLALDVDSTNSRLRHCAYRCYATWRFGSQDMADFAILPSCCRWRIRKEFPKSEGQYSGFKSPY
mP2X7, sequence (Q9Z1M0 whole entry): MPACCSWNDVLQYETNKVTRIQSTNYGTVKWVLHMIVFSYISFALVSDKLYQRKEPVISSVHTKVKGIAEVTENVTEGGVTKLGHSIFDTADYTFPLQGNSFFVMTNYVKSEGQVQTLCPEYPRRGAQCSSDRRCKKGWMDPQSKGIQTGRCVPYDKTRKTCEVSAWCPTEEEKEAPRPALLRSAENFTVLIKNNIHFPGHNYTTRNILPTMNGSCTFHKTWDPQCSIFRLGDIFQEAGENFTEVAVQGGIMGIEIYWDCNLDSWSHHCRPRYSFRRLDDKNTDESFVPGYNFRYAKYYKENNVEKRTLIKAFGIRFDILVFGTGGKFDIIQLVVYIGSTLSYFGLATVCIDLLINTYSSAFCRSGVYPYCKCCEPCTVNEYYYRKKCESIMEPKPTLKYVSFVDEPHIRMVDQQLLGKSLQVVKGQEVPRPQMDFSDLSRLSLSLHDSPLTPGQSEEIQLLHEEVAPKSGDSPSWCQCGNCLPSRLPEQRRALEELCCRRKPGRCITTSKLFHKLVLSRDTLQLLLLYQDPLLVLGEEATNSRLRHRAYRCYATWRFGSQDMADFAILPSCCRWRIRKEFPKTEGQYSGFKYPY

Row | IC50 (P2X7 receptor) | IC50 (mP2X7) | Structure (SMILES)
1 | 27.9 nM | 30.6 nM | O=C(NCC(c1scnc1C(F)F)N1CCC(Oc2nccn3nccc23)CC1)c1c(F)cccc1Cl (stereo not shown) [Example 44, 2-Chloro-N-{2-[4-(difluoromethyl)-1,3-thiazol-5-yl]-2-(4-{pyrazolo[1,5-a]pyrazin-4-yloxy}piperidin-1-yl)ethyl}-6-fluorobenzamide]
2 | 31 nM | 43.9 nM | O=C(NCC(c1scnc1C(F)F)N1CCC(Oc2ncccc2Cl)CC1)c1c(F)cccc1Cl (stereo not shown) [Example 47, 2-Chloro-N-(2-{4-[(3-chloropyridin-2-yl)oxy]piperidin-1-yl}-2-[4-(difluoromethyl)-1,3-thiazol-5-yl]ethyl)-6-fluorobenzamide]
3 | 19.4 nM | 19.5 nM | O=C(NCC(c1scnc1C(F)F)N1CCC(Oc2nccc3ncccc23)CC1)c1c(F)cccc1Cl (stereo not shown) [Example 49, 2-Chloro-N-{2-[4-(difluoromethyl)-1,3-thiazol-5-yl]-2-[4-(1,6-naphthyridin-5-yloxy)piperidin-1-yl]ethyl}-6-fluorobenzamide]
4 | 89 nM | 224 nM | N#Cc1cnccc1OC1CCN(C(CNC(=O)c2c(F)cccc2Cl)c2scnc2C(F)F)CC1 (stereo not shown) [Example 50, 2-Chloro-N-(2-{4-[(3-cyanopyridin-4-yl)oxy]piperidin-1-yl}-2-[4-(difluoromethyl)-1,3-thiazol-5-yl]ethyl)-6-fluorobenzamide]
5 | 62.2 nM | 68.7 nM | Cn1ncc2c(OC3CCN(C(CNC(=O)c4c(F)cccc4Cl)c4scnc4C(F)F)CC3)ncnc21 (stereo not shown) [Example 51, 2-Chloro-N-{2-[4-(difluoromethyl)-1,3-thiazol-5-yl]-2-[4-({1-methyl-1H-pyrazolo[3,4-d]pyrimidin-4-yl}oxy)piperidin-1-yl]ethyl}-6-fluorobenzamide]
6 | 274 nM | 571 nM | Cc1nnc2c(OC3CCN(C(CNC(=O)c4c(F)cccc4Cl)c4scnc4C(F)F)CC3)nccn12 (stereo not shown) [Example 52, 2-Chloro-N-{2-[4-(difluoromethyl)-1,3-thiazol-5-yl]-2-[4-({3-methyl-[1,2,4]triazolo[4,3-a]pyrazin-8-yl}oxy)piperidin-1-yl]ethyl}-6-fluorobenzamide]
7 | 41.5 nM | 38.7 nM | Cc1nsc(OC2CCN(C(CNC(=O)c3c(F)cccc3Cl)c3scnc3C(F)F)CC2)c1C#N (stereo not shown) [Example 53, 2-Chloro-N-(2-{4-[(4-cyano-3-methyl-1,2-thiazol-5-yl)oxy]piperidin-1-yl}-2-[4-(difluoromethyl)-1,3-thiazol-5-yl]ethyl)-6-fluorobenzamide]
8 | 22.8 nM | 52.9 nM | Cc1cc(OC2CCN(C(CNC(=O)c3c(F)cccc3Cl)c3scnc3C(F)F)CC2)nc(F)n1 (stereo not shown) [Example 54, 2-Chloro-N-{2-[4-(difluoromethyl)-1,3-thiazol-5-yl]-2-{4-[(2-fluoro-6-methylpyrimidin-4-yl)oxy]piperidin-1-yl}ethyl}-6-fluorobenzamide]
9 | 22.9 nM | 34 nM | Cc1cnc(F)nc1OC1CCN(C(CNC(=O)c2c(F)cccc2Cl)c2scnc2C(F)F)CC1 (stereo not shown) [Example 55, 2-Chloro-N-{2-[4-(difluoromethyl)-1,3-thiazol-5-yl]-2-{4-[(2-fluoro-5-methylpyrimidin-4-yl)oxy]piperidin-1-yl}ethyl}-6-fluorobenzamide]
10 | 53.8 nM | 82 nM | Cc1ncnc(OC2CCN(C(CNC(=O)c3c(F)cccc3Cl)c3scnc3C(F)F)CC2)c1F (stereo not shown) [Example 56, 2-Chloro-N-{2-[4-(difluoromethyl)-1,3-thiazol-5-yl]-2-{4-[(5-fluoro-6-methylpyrimidin-4-yl)oxy]piperidin-1-yl}ethyl}-6-fluorobenzamide]
11 | 27.4 nM | 11.5 nM | O=C(NCC(c1scnc1C(F)F)N1CCC(Oc2cncc(-n3cccn3)n2)CC1)c1c(F)cccc1Cl (stereo not shown) [Example 58, 2-Chloro-N-{2-[4-(difluoromethyl)-1,3-thiazol-5-yl]-2-(4-{[6-(1H-pyrazol-1-yl)pyrazin-2-yl]oxy}piperidin-1-yl)ethyl}-6-fluorobenzamide]
